Test results as given in ChEMBL document CHEMBL1201862, “PubChem BioAssay data set” (2004).
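Cultured in 96-well plates, cells were exposed to test compound for 48 hours across five concentrations. GI50 marks 50% less growth.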 Calls of active or inactive are those of the source. No stated cut-off is given here; in the data, active = GI50 up to about 1.1 µM and inactive = higher.

Key:
Experiment in all cases: NCI tumour cell line growth inhibition, 48 h
NCI-H23 = system: NCI-H23
ACHN = system: ACHN
HOP-92 = system: HOP-92
KM12 = system: KM12
COLO 205 = system: COLO 205
Malme-3M = system: Malme-3M
LXFL 529 = system: LXFL 529
RPMI-8226 = system: RPMI-8226
M14 = system: M14
CAKI-1 = system: CAKI-1
SNB-75 = system: SNB-75
HT-29 = system: HT-29
A498 = system: A498
DMS-114 = system: DMS-114
KM-20L2 = system: KM-20L2
NCI-H226 = system: NCI-H226
RXF 393 = system: RXF 393
K562 = system: K562
OVCAR-5 = system: OVCAR-5
HCT-116 = system: HCT-116
SN12C = system: SN12C
SNB-78 = system: SNB-78
OVCAR-4 = system: OVCAR-4
HCC 2998 = system: HCC 2998
SK-MEL-28 = system: SK-MEL-28
IGROV-1 = system: IGROV-1
XF498 = system: XF498
786-0 = system: 786-0
SF-268 = system: SF-268
DLD-1 = system: DLD-1
U-251 = system: U-251
SK-MEL-2 = system: SK-MEL-2
NCI-H522 = system: NCI-H522
TK-10 = system: TK-10
RXF 631 = system: RXF 631
NCI-H460 = system: NCI-H460
OVCAR-3 = system: OVCAR-3
UACC-257 = system: UACC-257
M19-MEL = system: M19-MEL
UO-31 = system: UO-31
MOLT-4 = system: MOLT-4
EKVX = system: EKVX
HOP-62 = system: HOP-62
SNB-19 = system: SNB-19
SK-MEL-5 = system: SK-MEL-5
LOX IMVI = system: LOX IMVI
SF-295 = system: SF-295
OVCAR-8 = system: OVCAR-8
SF-539 = system: SF-539
HL-60 = system: HL-60
A549 = system: A549
SW-620 = system: SW-620
CCRF-CEM = system: CCRF-CEM
SK-OV-3 = system: SK-OV-3
DMS-273 = system: DMS-273
UACC-62 = system: UACC-62
SR = system: SR

Measured: GI50

CC1=C(C(=O)Nc2cccc(C(F)(F)F)c2)C(c2ccc(O)cc2)C(C(=O)Nc2cccc(C(F)(F)F)c2)=C(C)N1
inactive: NCI-H23 16.1 µM | ACHN 20.3 µM | HOP-92 11.5 µM | KM12 15.8 µM | COLO 205 13.9 µM | Malme-3M 25.8 µM | LXFL 529 18.6 µM | RPMI-8226 7.35 µM | M14 14.9 µM | CAKI-1 11.6 µM | SNB-75 17.2 µM | HT-29 16 µM | A498 17.5 µM | DMS-114 14.8 µM | KM-20L2 18.3 µM | NCI-H226 17.3 µM | RXF 393 10.1 µM | K562 15 µM | OVCAR-5 24.9 µM | HCT-116 14.6 µM | SN12C > 10 µM | SNB-78 23 µM | OVCAR-4 14.8 µM | HCC 2998 17.3 µM | SK-MEL-28 18.7 µM | IGROV-1 15.6 µM | XF498 2.61 µM | 786-0 16.7 µM | SF-268 26.5 µM | DLD-1 20.5 µM | U-251 17.1 µM | SK-MEL-2 17.3 µM | NCI-H522 15.5 µM | TK-10 26.1 µM | RXF 631 14.8 µM | NCI-H460 16.7 µM | OVCAR-3 15.7 µM | UACC-257 17.7 µM | M19-MEL 16.4 µM | UO-31 12.7 µM | MOLT-4 7.98 µM | EKVX 18.1 µM | HOP-62 19.5 µM | SNB-19 32.2 µM | SK-MEL-5 16.9 µM | LOX IMVI 15.6 µM | SF-295 20.5 µM | OVCAR-8 23.2 µM | SF-539 26.5 µM | HL-60 15.1 µM | A549 24.4 µM | SW-620 19.4 µM | CCRF-CEM 13.6 µM | SK-OV-3 19.1 µM

CNC1CC(n2cc(C)c(=O)[nH]c2=O)OC1CO (configuration not stated)
inactive: NCI-H23 > 100 µM | ACHN > 100 µM | HOP-92 > 100 µM | DMS-273 > 100 µM | COLO 205 > 100 µM | Malme-3M > 100 µM | LXFL 529 > 100 µM | RPMI-8226 > 100 µM | M14 > 100 µM | CAKI-1 > 100 µM | SNB-75 > 100 µM | A498 > 100 µM | DMS-114 > 100 µM | UACC-62 > 100 µM | NCI-H226 > 100 µM | K562 > 100 µM | HCT-116 > 100 µM | SN12C > 100 µM | OVCAR-4 > 100 µM | HCC 2998 > 100 µM | SK-MEL-28 > 100 µM | IGROV-1 > 100 µM | XF498 > 100 µM | 786-0 > 100 µM | SF-268 > 100 µM | DLD-1 > 100 µM | SK-MEL-2 > 100 µM | SR > 100 µM | NCI-H522 > 100 µM | RXF 631 > 100 µM | M19-MEL > 100 µM | UO-31 > 100 µM | MOLT-4 > 100 µM | HOP-62 > 100 µM | SF-539 > 100 µM | HL-60 > 100 µM | CCRF-CEM > 100 µM | SK-OV-3 > 100 µM
